In ChEMBL document CHEMBL1201862, “PubChem BioAssay data set” (2004):
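1) Cells in 96-well plates. 2) Compound, 48 h, 5 concentrations. 3) Linear interpolation between surrounding doses. 4) Unreached endpoint = highest concentration. The concentration for 50% growth inhibition is given as GI50.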 The source made the active and inactive calls. Cut-off read from the data, not from the text of the source: active = GI50 up to about 1.1 µM and inactive = higher.

How the values were obtained:
Assay in all cases: growth of human tumour cells (NCI), 48 h
EKVX = tested on: EKVX
HL-60 = tested on: HL-60
KM12 = tested on: KM12
MCF7 = tested on: MCF7
MDA-MB-231 = tested on: MDA-MB-231
NCI-H460 = tested on: NCI-H460
OVCAR-3 = tested on: OVCAR-3
OVCAR-5 = tested on: OVCAR-5
OVCAR-8 = tested on: OVCAR-8
RPMI-8226 = tested on: RPMI-8226
RXF 393 = tested on: RXF 393
SF-268 = tested on: SF-268
SF-295 = tested on: SF-295
SK-MEL-28 = tested on: SK-MEL-28
SK-MEL-5 = tested on: SK-MEL-5
SK-OV-3 = tested on: SK-OV-3
SN12C = tested on: SN12C
SR = tested on: SR
T47D = tested on: T47D
UACC-257 = tested on: UACC-257

SMILES	GI50 (EKVX)	GI50 (HL-60)	GI50 (KM12)	GI50 (MCF7)	GI50 (MDA-MB-231)	GI50 (NCI-H460)	GI50 (OVCAR-3)	GI50 (OVCAR-5)	GI50 (OVCAR-8)	GI50 (RPMI-8226)	GI50 (RXF 393)	GI50 (SF-268)	GI50 (SF-295)	GI50 (SK-MEL-28)	GI50 (SK-MEL-5)	GI50 (SK-OV-3)	GI50 (SN12C)	GI50 (SR)	GI50 (T47D)	GI50 (UACC-257)
CC(=O)Nc1ccc2c3c(cc(O)c2c1)N(C(=O)CCCCCC(=O)Nc1ccc2c4c(cc(O)c2c1)N(C(=O)OC(C)(C)C)CC4CCl)CC3CCl (centres undefined)	41.9 µM (inactive)	0.355 µM (active)	2.73 µM (inactive)	0.233 µM (active)	4.33 µM (inactive)	0.625 µM (active)	1.57 µM (inactive)	10 µM (inactive)	2.35 µM (inactive)	3.37 µM (inactive)	1.24 µM (inactive)	0.646 µM (active)	5.73 µM (inactive)	6.28 µM (inactive)	1.33 µM (inactive)	3.54 µM (inactive)	3.45 µM (inactive)	0.118 µM (active)	0.541 µM (active)	3.37 µM (inactive)
COc1ccc(N2C(=O)C3c4[nH]c5c(C)cccc5c4C4CCC(C(C)(C)C)CC4C3C2=O)cc1 (centres undefined)	5.18 µM (inactive)	3.3 µM (inactive)	5.13 µM (inactive)	3.56 µM (inactive)	> 10 µM (inactive)	2.83 µM (inactive)	> 10 µM (inactive)	> 10 µM (inactive)	> 10 µM (inactive)	6 µM (inactive)	3.36 µM (inactive)	5.61 µM (inactive)	> 10 µM (inactive)	> 10 µM (inactive)	> 10 µM (inactive)	> 10 µM (inactive)	8.79 µM (inactive)	3.44 µM (inactive)	> 10 µM (inactive)	–
Cc1ccc(S(=O)(=O)NCCCSCCO)cc1	–	26.1 µM (inactive)	20.6 µM (inactive)	32.8 µM (inactive)	27.7 µM (inactive)	43.9 µM (inactive)	31.6 µM (inactive)	–	57.8 µM (inactive)	–	> 100 µM (inactive)	10 µM (inactive)	> 100 µM (inactive)	> 100 µM (inactive)	13.9 µM (inactive)	> 100 µM (inactive)	43 µM (inactive)	> 100 µM (inactive)	21.7 µM (inactive)	44.1 µM (inactive)
OC12c3ccccc3C1CCCCCCCCCC21OCCCO1 (centres undefined)	> 100 µM (inactive)	4.15 µM (inactive)	> 100 µM (inactive)	–	–	–	> 100 µM (inactive)	> 100 µM (inactive)	> 100 µM (inactive)	> 100 µM (inactive)	–	> 100 µM (inactive)	> 100 µM (inactive)	> 100 µM (inactive)	> 100 µM (inactive)	> 100 µM (inactive)	> 100 µM (inactive)	4.73 µM (inactive)	–	> 100 µM (inactive)
CN(C)C(=S)/N=c1\ssc(=S)n1Cc1ccco1	6.9 µM (inactive)	0.379 µM (active)	2.06 µM (inactive)	0.49 µM (active)	10.4 µM (inactive)	1.34 µM (inactive)	1.15 µM (inactive)	32 µM (inactive)	3.79 µM (inactive)	1.48 µM (inactive)	0.998 µM (active)	7.46 µM (inactive)	2.1 µM (inactive)	8.07 µM (inactive)	1.22 µM (inactive)	1.71 µM (inactive)	4.21 µM (inactive)	1.97 µM (inactive)	0.571 µM (active)	3.44 µM (inactive)
O=[N+]([O-])c1ccccc1S(=O)(=O)c1ccccc1	> 100 µM (inactive)	31.2 µM (inactive)	> 100 µM (inactive)	–	–	> 100 µM (inactive)	> 100 µM (inactive)	> 100 µM (inactive)	> 100 µM (inactive)	> 100 µM (inactive)	77.8 µM (inactive)	> 100 µM (inactive)	> 100 µM (inactive)	> 100 µM (inactive)	81.7 µM (inactive)	> 100 µM (inactive)	> 100 µM (inactive)	> 100 µM (inactive)	–	> 100 µM (inactive)
COc1ccccc1-c1cc(O)c2ccc(C)nc2n1	97.3 µM (inactive)	–	42.6 µM (inactive)	47.4 µM (inactive)	> 100 µM (inactive)	–	–	> 100 µM (inactive)	> 100 µM (inactive)	> 100 µM (inactive)	> 100 µM (inactive)	> 100 µM (inactive)	–	> 100 µM (inactive)	–	> 100 µM (inactive)	> 100 µM (inactive)	–	> 100 µM (inactive)	> 100 µM (inactive)
COc1cc(O)c2c(=O)c(O)c(-c3ccc(O)c(O)c3)oc2c1 [RHAMNETIN]	10.2 µM (inactive)	2.78 µM (inactive)	–	17.8 µM (inactive)	10.7 µM (inactive)	4.25 µM (inactive)	3.9 µM (inactive)	19.7 µM (inactive)	10.7 µM (inactive)	6.73 µM (inactive)	–	7.26 µM (inactive)	21.2 µM (inactive)	6.76 µM (inactive)	10.5 µM (inactive)	20 µM (inactive)	–	13.3 µM (inactive)	19.6 µM (inactive)	13 µM (inactive)
